According to paper PMC8556085, “Antimicrobial and Antioxidant Secondary Metabolites from Trifolium baccarinii Chiov. (Fabaceae) and Their Mechanisms of Antibacterial Action” (BioMed Research International, 2021):
Marks after values point to notes of the source that are not given here.

Experiments:
[1] = tested on: superoxide dismutase (SOD); assay: Superoxide dismutase (SOD) activity in treated bacterial cell lysates; type: cell-based; conditions: Staphylococcus aureus ATCC25923 and MRSA03, MIC and 1/2xMIC, 24 h
Procedure: (3) Antioxidant Enzyme Activities. For evaluation of catalase and superoxide dismutase (SOD) activities, Staphylococcus aureus ATCC25923 and MRSA03 (1.5 × 10^8 CFU/mL, 500 μL) cultures from the late exponential growth phase were treated with MIC and 1/2xMIC of the methanol extract (500 μL), compound 5 (500 μL), and oxacillin (500 μL) solutions and incubated at 37°C for 24 h. The suspension was centrifuged at 3000 rpm for 5 min to separate the supernatant. The pellet was washed twice with PBS and resuspended in 500 μL of cell lysate buffer (1 mM EDTA, 10 Mm Tris-HCl, 0.1% Triton-X-100, and 150 mM NaCl) and incubated at 37°C for 1 h. Contents were then centrifuged at 3000 rpm for 5 min, and the supernatant was collected for enzyme activity assays.
Superoxide dismutase (SOD) activity. This was determined using a kit (Sigma, catalogue no. 19160) in the cell lysate. […] The reaction mixture was incubated in the dark at 37°C for 20 min, and the absorbance was read at 450 nm on a BioTek Synergy 2 multiplate reader. The SOD activity was calculated based on the following formula: [(ABlank1–ABlank3) − (ASample–ABlank2)/(ABlank1–ABlank3) × 100], where Blank 1 contains ultrapure water, WST solution, and enzyme solution, Blank 2 contains sample solution, WST solution, and dilution buffer, and Blank 3 contains ultrapure water, WST solution, and dilution buffer.

[2] = DPPH free radical scavenging assay; conditions: mean ± SD
Procedure: The free radical scavenging activity of extracts and compounds was evaluated according to the described method. The EC50 (μg/mL), which is the amount of sample necessary to inhibit by 50% the absorbance of free radical DPPH, was calculated. Vitamin C was used as a standard control. All the analyses were carried out in triplicate and repeated three times.

[3] = tested on: Pseudomonas aeruginosa ATCC27853; assay: Bacteriolytic assay (time-kill kinetic method, OD600); type: cell-based; conditions: Pseudomonas aeruginosa suspension, 2xMIC, after 240 min, compared to the 0 time value
Procedure: (§1) (1) Bacteriolytic Assay. […] Full growth of bacterium in MHB was diluted 100 times and incubated at 37°C to produce an OD600 of 0.8 as a starting inoculum. Sample solutions were added to the starting bacterial suspension to give a final concentration of 2xMIC and incubated at 37°C under agitation at 150 rpm. After the incubation period corresponding to 0, 15, 30, 60, 120, and 240 min, 100 μL was pipetted from each tube and the optical density was recorded at 600 nm using the Biobase UV-Vis spectrophotometer. Corresponding dilutions of test samples were used as blanks. Oxacillin was used as a positive control, and the tubes without an extract/compound served as negative controls. All the measurements were done in triplicate and repeated three times.

[4] = tested on: Staphylococcus aureus ATCC25923; assay: as above; type: cell-based; conditions: Staphylococcus aureus ATCC25923 suspension, 2xMIC, after 240 min, compared to the 0 time value
Procedure: as §1

Staphylococcus aureus = assay: Loss of salt tolerance; type: cell-based; conditions: pretreatment 1/2xMIC, MIC, 2xMIC for 1 h; MHA-NaCl 50, 60, 70 g/L
Procedure: (2) Loss of Salt Tolerance in Staphylococcus aureus. The ability of Staphylococcus aureus ATCC25923 and MRSA03 cells treated with the methanol extract and compound 5 to grow on Mueller-Hinton agar (MHA) supplemented with NaCl was investigated. In preliminary experiments, untreated suspensions of Staphylococcus aureus were plated on MHA supplemented with NaCl from 40 to 100 g/L. Plates were incubated. After incubation, the resulting colonies were counted. Concentrations of NaCl, 50, 60, and 70 g/L, which modestly compromised the colony-forming abilities of untreated microorganisms, were selected. For further experimentation steps, suspensions of bacteria were prepared as previously described and treated with the MeOH extract or compound 5 at 1/2xMIC, MIC, and 2xMIC. After 1 h incubation, samples were removed, serially diluted, and inoculated onto MHA and MHA-NaCl (50, 60, and 70 g/L). Bacterial culture without a sample was used as a control for each MHA-NaCl plate. Upon incubation, the numbers of CFU per milliliter on each MHA-NaCl plate were compared to those on the MHA plate, and the result was expressed as a percentage.

[5] = tested on: Staphylococcus aureus ATCC25923; assay: Broth microdilution MIC/MMC; type: cell-based
In short: (§2)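 In each well, sample dilutions met inoculum in MHB or SDB, giving final concentrations of 2048 to 0.125 μg/mL. Plates were shaken at 37°C for 24 h for bacteria, and at 30°C for 48 h for C. albicans or 72 h for C. neoformans, before visual MIC scoring.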

[6] = tested on: methicillin-resistant Staphylococcus aureus 04 (MRSA04); assay: Broth microdilution MIC/MMC; type: cell-based
In short: as §2

[7] = tested on: tested bacteria and yeasts; assay: Broth microdilution MIC/MMC, summary over all strains; type: cell-based; conditions: against specific microorganism; cutoff points of ref 33
In short: as §2

[8] = Staphylococcus aureus ATCC25923

**Q.** For “4,7,2′-trihydroxy-4′-methoxyisoflavanol [compound 5]”, which “SOD activity vs untreated cell lysates” value [1] is on record?
**A.** significant concentration-dependent decreases

**Q.** And the “DPPH free radical scavenging activity (EC50)” value [2]?
**A.** 11.58 ± 0.73^f μg/mL

**Q.** What about the “decline in cell turbidity” value [3] of the same substance?
**A.** 99.85%

**Q.** And the “decline in cell turbidity” value [4]?
**A.** 99.87%

**Q.** And the “number of colony-forming units on NaCl-supplemented media after pretreatment” value (Staphylococcus aureus)?
**A.** significant decrease

**Q.** And the MMC [5, 8]?
**A.** 8 µg/mL

**Q.** And the MMC/MIC [5, 8]?
**A.** 1

**Q.** And the MIC ([5]; Staphylococcus aureus ATCC25923, 24 h, 37°C)?
**A.** 8 µg/mL

**Q.** What about the MMC ([6]; MRSA04) of the same substance?
**A.** 16 µg/mL

**Q.** And the MMC/MIC ([6]; MRSA04)?
**A.** 1

**Q.** What about the MIC ([6]; MRSA04, 24 h, 37°C) of the same substance?
**A.** 16 µg/mL

**Q.** And the “antimicrobial activity class of pure compounds by cutoff points” value [7]?
**A.** significant/moderate
